Laboratory results: patent publication US20230233482A1, “COMPOSITIONS COMPRISING THYMOL FOR USE IN THE TREATMENT OF INFLAMMATORY OR FUNCTIONAL BOWEL DISORDERS BY MODULATING THE ENDOCANNABINOID SYSTEM” (priority 2020, published 2023)

Tests used:
[1] = weaned piglets, 25.5-510 mg thymol/kg feed
Experimental: […] piglets (Duroc—Large White) weaned at 28 days of age and with a body weight (BW) of 7.71±1.00 kg were divided into 40 pens (4 piglets per pen, castrated males and females were placed in separate pens) and randomly assigned to one of the following experimental groups (n=32): control group fed with the basal diet (T1), a group fed with the basal diet supplemented with 25.5 mg of thymol/kg feed (T2), a group fed with the basal diet supplemented with 51 mg of thymol/kg feed (T3), a group fed with the basal diet supplemented with 153 mg of thymol/kg feed (T4) and a group fed with the basal diet supplemented with 510 mg of thymol/kg feed (T5). Thymol was provided in a form embedded (microencapsulated) in a lipid matrix (Vetagro SpA, Reggio Emilia, Italy). Concentrations of thymol were selected to meet or exceed the upper limit of inclusion in food and feed established by the European Agency for the Evaluation of Medicinal Products and for the feed. The basal feed was formulated to meet or exceed the nutritional requirements of pigs according to the National Research Council, and feed and water were provided ad libitum (the composition of the basal diet is reported in Table 1). The health condition of the animals was monitored during the study. The piglets were individually weighed at the beginning (day 0) and end (day 14) of the study. Growth parameters, such as FI, ADFI, ADG and F:G (FI—feed intake; ADFI—Average daily feed intake; ADG—Average daily gain; F:G—Feed to gain ratio), were measured in the animals housed in each pen on day 14 (d14) of the experiment.
Animals were blocked in a completely randomised design and data were analysed using GraphPad Prism® software (GraphPad Software, Inc., La Jolla, Calif., USA). Data were analysed using one-way ANOVA followed by Tukey's post hoc test to detect differences among treatments. The pen was the experimental unit for growth performance, whereas the pig was the experimental unit for gene expression. Differences were considered significant at P<0.05, and trends were defined at 0.05≤P<0.1.

[2] = tested on: CB1 mRNA; assay: Gene expression (real-time PCR) of cannabinoid receptor 1 in duodenal and ileal mucosa at d14; format: in vivo, pigs
Experimental: (§1) At the end of the study, 8 animals from each treatment group were sacrificed, samples were collected, and analysed. Duodenal and ileal mucosal scrapings were collected. The duodenum and ileum were longitudinally cut to expose the mucosa, washed with a phosphate-buffered saline solution to remove mucus and digesta, then scraped gently, packed, immediately frozen in liquid nitrogen and stored at -80° C. until the analyses of gene and protein expression. Gene expression was analysed using the method reported by […] et al. [The Journal of Nutrition. 2011; 141:2139-45]. Duodenal and ileal scraping samples obtained on d14 of the study were disrupted by grinding them in liquid nitrogen with mortar and pestle, and then homogenised using a TissueLyser (Qiagen, Hilden, Germany). Total RNA was isolated using a NucleoSpin® RNA Kit (Macherey-Nagel, Düren, Germany) according to the manufacturer's instructions. Genomic DNA contamination was removed by treating the samples with the deoxyribonuclease supplied in the extraction kit ([…], RNase-free; Macherey-Nagel). The RNA yield and quality were determined spectrophotometrically by measuring the absorbance at 260 and 280 nm (A260 and A280 nm, respectively) (Microvolume Mode with SmartPath® Technology, Denovix). One microgram of RNA was reverse transcribed using the iScript cDNA Synthesis Kit (Bio-Rad Laboratories Inc., Hercules, Calif., USA) according to the manufacturer's instructions. Real-time PCR was performed using an iCycler Thermal Cycler system and SybrGreen Supermix (Bio-Rad Laboratories Inc.). […] The average threshold cycle (CT) was determined for each gene of interest, and the geometric average was calculated for HK by assuming that CT is the number of cycles required to reach a fixed arbitrary threshold. Delta CT was calculated, then a modification of the 2^-ΔΔCT method [Livak K J, et al., Methods 2001; 25:402-8] was used to analyse the relative expression (fold changes), which was calculated relative to the control group. […]

[3] = tested on: CB2 mRNA; assay: Gene expression (real-time PCR) of cannabinoid receptor 2 in duodenal and ileal mucosa at d14; format: in vivo, pigs
Experimental: At the end of the study, 8 animals from each treatment group were sacrificed, samples were collected, and analysed. Duodenal and ileal mucosal scrapings were collected. The duodenum and ileum were longitudinally cut to expose the mucosa, washed with a phosphate-buffered saline solution to remove mucus and digesta, then scraped gently, packed, immediately frozen in liquid nitrogen and stored at -80° C. until the analyses of gene and protein expression. Gene expression was analysed using the method reported by […] et al. [The Journal of Nutrition. 2011; 141:2139-45]. Duodenal and ileal scraping samples obtained on d14 of the study were disrupted by grinding them in liquid nitrogen with mortar and pestle, and then homogenised using a TissueLyser (Qiagen, Hilden, Germany). Total RNA was isolated using a NucleoSpin® RNA Kit (Macherey-Nagel, Düren, Germany) according to the manufacturer's instructions. Genomic DNA contamination was removed by treating the samples with the deoxyribonuclease supplied in the extraction kit ([…], RNase-free; Macherey-Nagel). The RNA yield and quality were determined spectrophotometrically by measuring the absorbance at 260 and 280 nm (A260 and A280 nm, respectively) (Microvolume Mode with SmartPath® Technology, Denovix). One microgram of RNA was reverse transcribed using the iScript cDNA Synthesis Kit (Bio-Rad Laboratories Inc., Hercules, Calif., USA) according to the manufacturer's instructions. Real-time PCR was performed using an iCycler Thermal Cycler system and SybrGreen Supermix (Bio-Rad Laboratories Inc.). The thermocycling protocol provided for an initial denaturation step for 1 min and 30 seconds at 95° C., followed by 40 cycles of denaturation at 95° C. for 15 seconds and 30 seconds of annealing and extension at 60° C. After amplification, a melting curve analysis was performed for all the samples, with slow heating from 55° C. to 95° C. at a rate of 0.5° C./s to validate the absence of non-specific products. Gene expression was normalised to a housekeeping gene (HK) encoding portions of porcine ribosomal subunit 60 S, in particular ribosomal protein […] (RPL35). The average threshold cycle (CT) was determined for each gene of interest, and the geometric average was calculated for HK by assuming that CT is the number of cycles required to reach a fixed arbitrary threshold. Delta CT was calculated, then a modification of the 2^-ΔΔCT method [Livak K J, et al., Methods 2001; 25:402-8] was used to analyse the relative expression (fold changes), which was calculated relative to the control group. The sequences, accession numbers in the EMBL database/GenBank, expected product lengths and references for porcine primers are reported in Table 2. […]

[4] = tested on: FAAH mRNA; assay: Gene expression (real-time PCR) of ECS enzyme FAAH in duodenal and ileal mucosa at d14; format: in vivo, pigs
Experimental: (§2) At the end of the study, 8 animals from each treatment group were sacrificed, samples were collected, and analysed. Duodenal and ileal mucosal scrapings were collected. The duodenum and ileum were longitudinally cut to expose the mucosa, washed with a phosphate-buffered saline solution to remove mucus and digesta, then scraped gently, packed, immediately frozen in liquid nitrogen and stored at -80° C. until the analyses of gene and protein expression. Gene expression was analysed using the method reported by […] et al. [The Journal of Nutrition. 2011; 141:2139-45]. […] The RNA yield and quality were determined spectrophotometrically by measuring the absorbance at 260 and 280 nm (A260 and A280 nm, respectively) (Microvolume Mode with SmartPath® Technology, Denovix). […] The average threshold cycle (CT) was determined for each gene of interest, and the geometric average was calculated for HK by assuming that CT is the number of cycles required to reach a fixed arbitrary threshold. Delta CT was calculated, then a modification of the 2^-ΔΔCT method [Livak K J, et al., Methods 2001; 25:402-8] was used to analyse the relative expression (fold changes), which was calculated relative to the control group. […]

[5] = tested on: TRPV1 mRNA; assay: Gene expression (real-time PCR) of gut chemosensing marker TRPV1 in duodenal and ileal mucosa at d14; format: in vivo, pigs; details: for TRPV1 mRNA levels compared to the control group: ileum, d14, P=0.0183
Experimental: as §1

[6] = tested on: OR1G1 mRNA; assay: Gene expression (real-time PCR) of gut chemosensing marker OR1G1 in duodenal and ileal mucosa at d14; format: in vivo, pigs
Experimental: as §2

SMILES: Cc1ccc(C(C)C)c(O)c1 [thymol]
- health conditions ([1]; 14 days): good health conditions
- mortality ([1]; 14 days): no mortality
- differences in average daily feed intake (ADFI) among the treatment groups ([1]; day 14, data not shown): not observed
- differences in average daily gain (ADG) among the treatment groups ([1]; day 14, data not shown): not observed
- differences in body weight (BW) among the treatment groups ([1]; day 14, data not shown): not observed
- differences in feed intake (FI) among the treatment groups ([1]; day 14, data not shown): not observed
- differences in feed to gain ratio (F:G) among the treatment groups ([1]; day 14, data not shown): not observed
- level of the CB1 mRNA compared to the control group ([2]; duodenum, group T5 (510 mg thymol/kg feed), d14, P=0.0209): significantly increased
- level of the CB1 mRNA compared to the control group ([2]; ileum, group T4 (153 mg thymol/kg feed), d14, P=0.0054): significantly increased
- level of the CB1 mRNA compared to the control group ([2]; ileum, group T5 (510 mg thymol/kg feed), d14, P=0.0054): significantly increased
- levels of the CB2 mRNA compared to the control group ([3]; duodenum, group T4 (153 mg thymol/kg feed), d14, P=0.004): Significantly increased
- levels of the CB2 mRNA compared to the control group ([3]; duodenum, group T5 (510 mg thymol/kg feed), d14, P=0.004): Significantly increased
- levels of the CB2 mRNA compared to the control group ([3]; ileum, group T4 (153 mg thymol/kg feed), d14, P=0.0162): Significantly increased
- levels of the CB2 mRNA compared to the control group ([3]; ileum, group T5 (510 mg thymol/kg feed), d14, P=0.0162): Significantly increased
- differences in FAAH mRNA levels ([4]; duodenum, all thymol groups (25.5-510 mg/kg feed), d14): not observed
- FAAH mRNA levels compared to the control group ([4]; ileum, group T4 (153 mg thymol/kg feed), d14, P=0.0028): significantly increased
- TRPV1 mRNA level ([5]; duodenum, 510 mg thymol/kg of feed, d14, P=0.0382): increased
- TRPV1 mRNA levels compared to the control group ([5]; group T4 (153 mg thymol/kg feed)): increased
- TRPV1 mRNA levels compared to the control group ([5]; group T5 (510 mg thymol/kg feed)): increased
- OR1G1 mRNA expression compared to the control group ([6]; duodenum, 510 mg thymol/kg feed (T5), d14, P=0.0210): higher levels
- OR1G1 mRNA expression compared to the control group ([6]; ileum, 153 mg thymol/kg feed (T4), d14, P=0.0235): higher levels
